Measured values from PMC3630091, “A Mechanistic Paradigm for Broad-Spectrum Antivirals that Target Virus-Cell Fusion” (PLoS Pathogens, 2013).
Read-outs that look alike come from different tables or passages of the source.

Columns and labels:
NDV = experiment: microbe, parasite or virus in culture; format: cell-based, Newcastle disease virus; conditions: read-out: IC50 ± SD (nM) (N=x) NDV
[1] = reference sensitizer value; cited from earlier work
HIV = experiment: microbe, parasite or virus in culture; format: cell-based; conditions: Human immunodeficiency virus 1, 10 min, read-out: IC50 ± SD (nM) (N=x) HIV
HSV = experiment: microbe, parasite or virus in culture; format: cell-based, Herpes simplex virus-1; conditions: Human alphaherpesvirus 1, 10 min, read-out: IC50 ± SD (nM) (N=x) HSV
[2] = Absorbance spectra / UV-visible spectra integration; format: physicochemical
[3] = Singlet oxygen quantum yield measurements; format: physicochemical
[4] = Singlet oxygen quenching measurements; format: physicochemical; conditions: 355 nm with C60 as external sensitizer; error is one standard deviation
HIV-1JR-CSF = format: cell-based
RVFV ZH501 = format: in vivo, Balb/c mice
enveloped viruses = format: cell-based
in vitro = conditions: human
[5] = Membrane partition into POPC LUV (fluorescence)
[6] = Membrane partition into HIV membrane-like mixture LUV (fluorescence)

For `CCN1C(=O)/C(=C/c2ccc(-c3ccccc3)o2)OC1=S` [JL101], the IC50 (NDV) was 8800 nM.

For `O=C1OC2(c3cc(I)c(O)c(I)c3Oc3c2cc(I)c(O)c3I)c2c(Cl)c(Cl)c(Cl)c(Cl)c21` [RB, Rose Bengal], the “1O2 QY of reference compound at 532 nm” value [1] is listed as 0.79.

Compound `CCN1C(=S)O/C(=C\c2ccc(-c3c(OC)cc(OC)cc3OC)o2)C1=S` [JL122, (Z)-3-ethyl-5-((5-(2,4,6-trimethoxyphenyl)furan-2-yl)methylene)oxazolidine-2,4-dithione] has an IC50 (HIV) of 64 ± 41.5 nM, an IC50 (NDV; avian paramyxovirus 1, 10 min) of 0.9 ± 0.8 nM and an IC50 (HSV) of 2.4 ± 1.4 nM. For the same compound, the “Abs Max (λmax)” value ([2]; 100 µM in DMSO) was 545 nm, the “AUC (400-750 nm)” value ([2]; integrated absorption divided by concentration, normalized relative to LJ001 (LJ001 = 100)) was 153 and the “total integrated absorption (AUC), times that of LJ001” value ([2]; λ = 400 to 750 nm) was 1.53 times. For the same compound, the “QY at 355 nm, times higher than LJ001” value ([3]; 355 nm) was “about 2 times”, the “1O2 QY 355 nm” value ([3]; in CD2Cl2, excitation 355 nm, error is one standard deviation) was 0.43 ± 0.04 and the “1O2 QY 532 nm” value ([3]; in CD2Cl2, excitation 532 nm, error is one standard deviation) was 0.23 ± 0.02. For the same compound, the “kT × 10-7” value [4] was 1.970 ± 0.050 M-1s-1, the “antiviral potency at physiological hematocrits” value (HIV-1JR-CSF) was “maintained their antiviral potency” and the “time-to-death / survival compared to untreated controls” value (RVFV ZH501; 20 pfu RVFV ZH501 IP, IP once a day for 7 days from 1 h post-challenge, JL118 1.25 mg/kg, JL122 and JL103 10 mg/kg) was “moderate but significant delay in time-to-death”. For the same compound, the Median survival (RVFV ZH501; 50 pfu RVFV ZH501 IP, 10 mg/kg IP at 1, 12, 24 and 48 h post-challenge, n = 5) was 6 days, the “improved in vitro potency compared to LJ001” value (enveloped viruses) was 10-100 fold and the CC50 (in vitro) was 10.3 µM. The MRT last (Pharmacokinetics in mice; female, Balb/c, mouse, in vivo) was 4.7 to 7 h, the Tmax (Pharmacokinetics in mice; female, Balb/c, mouse, in vivo) was 15 to 60 min and the AUC(0-t) (Pharmacokinetics in mice; female, Balb/c, mouse, in vivo, ip, 5 mg/kg) was 569 ng·h/mL. It also gave a Cmax (Pharmacokinetics in mice; female, Balb/c, mouse, in vivo, ip, 5 mg/kg, ip 5 mg/kg) of 122 ng/mL, an AUC(0-t) (Pharmacokinetics in mice; female, Balb/c, mouse, in vivo, ip, 10 mg/kg) of 924 ng·h/mL and a Cmax (Pharmacokinetics in mice; female, Balb/c, mouse, in vivo, ip, 10 mg/kg, ip 10 mg/kg) of 132 ng/mL. It also gave an AUC(0-t) (Pharmacokinetics in mice; female, Balb/c, mouse, in vivo, po, 10 mg/kg) of 232 ng·h/mL, a Cmax (Pharmacokinetics in mice; female, Balb/c, mouse, in vivo, po, 50 mg/kg, po 50 mg/kg) of 122 ng/mL and an AUC(0-t) (Pharmacokinetics in mice; female, Balb/c, mouse, in vivo, po, 100 mg/kg) of 1270 ng·h/mL. The “improvements in relevant pharmacokinetic (PK) parameters compared to LJ001” value (Pharmacokinetics in mice; half-life, AUC, bioavailability, clearance) was over 10 fold, the Kp at 10 min, 50 µM [5] was 1130 and the “IL / Iw” value ([5]; POPC LUV, fluorescence intensity ratio from curve fitting) was 143.8. The Kp at 10 min, 50 µM [6] was 267 and the “IL / Iw” value ([6]; HIV-like mixture LUV, fluorescence intensity ratio from curve fitting) was 613.7.

For `Cc1cn([C@H]2C[C@H](N=[N+]=[N-])[C@@H](CO)O2)c(=O)[nH]c1=O` [AZT], the “t1/2 (inhibition half-life, time-of-addition)” value (HIV-1JRCSF) was over 500 min.
